# In patent US20080269250A1, “Pyrrolidine and Piperidine Acetylene Derivatives for Use as Mglur5 Antagonists” (priority 2005, published 2008):
# Key:
# mice = experiment: stress-induced hyperthermia in mice; format: in vivo; settings: control 0.93±0.1° C.
# Procedure: A. Lecci et al., Psychopharmacol 101, 255-261]. At doses of about 0.1 to about 30 mg/kg p.o., selected agents of the invention reverse the stress-induced hyperthermia.
# hmGluR5 = target: T1, hmGluR5 (Homo sapiens, UniProt P41594); experiment: inhibition of quinqualate-induced inositol phosphate turnover in hmGluR5 expressing cells; format: cell-based; settings: read-out: IC50 concentration, inhibition of quinqualate-induced inositol phosphate turnover
# T1 construct: expressed in transfected cells
# T1 sequence (P41594 21-1180 isoform P41594-2 limits assumed): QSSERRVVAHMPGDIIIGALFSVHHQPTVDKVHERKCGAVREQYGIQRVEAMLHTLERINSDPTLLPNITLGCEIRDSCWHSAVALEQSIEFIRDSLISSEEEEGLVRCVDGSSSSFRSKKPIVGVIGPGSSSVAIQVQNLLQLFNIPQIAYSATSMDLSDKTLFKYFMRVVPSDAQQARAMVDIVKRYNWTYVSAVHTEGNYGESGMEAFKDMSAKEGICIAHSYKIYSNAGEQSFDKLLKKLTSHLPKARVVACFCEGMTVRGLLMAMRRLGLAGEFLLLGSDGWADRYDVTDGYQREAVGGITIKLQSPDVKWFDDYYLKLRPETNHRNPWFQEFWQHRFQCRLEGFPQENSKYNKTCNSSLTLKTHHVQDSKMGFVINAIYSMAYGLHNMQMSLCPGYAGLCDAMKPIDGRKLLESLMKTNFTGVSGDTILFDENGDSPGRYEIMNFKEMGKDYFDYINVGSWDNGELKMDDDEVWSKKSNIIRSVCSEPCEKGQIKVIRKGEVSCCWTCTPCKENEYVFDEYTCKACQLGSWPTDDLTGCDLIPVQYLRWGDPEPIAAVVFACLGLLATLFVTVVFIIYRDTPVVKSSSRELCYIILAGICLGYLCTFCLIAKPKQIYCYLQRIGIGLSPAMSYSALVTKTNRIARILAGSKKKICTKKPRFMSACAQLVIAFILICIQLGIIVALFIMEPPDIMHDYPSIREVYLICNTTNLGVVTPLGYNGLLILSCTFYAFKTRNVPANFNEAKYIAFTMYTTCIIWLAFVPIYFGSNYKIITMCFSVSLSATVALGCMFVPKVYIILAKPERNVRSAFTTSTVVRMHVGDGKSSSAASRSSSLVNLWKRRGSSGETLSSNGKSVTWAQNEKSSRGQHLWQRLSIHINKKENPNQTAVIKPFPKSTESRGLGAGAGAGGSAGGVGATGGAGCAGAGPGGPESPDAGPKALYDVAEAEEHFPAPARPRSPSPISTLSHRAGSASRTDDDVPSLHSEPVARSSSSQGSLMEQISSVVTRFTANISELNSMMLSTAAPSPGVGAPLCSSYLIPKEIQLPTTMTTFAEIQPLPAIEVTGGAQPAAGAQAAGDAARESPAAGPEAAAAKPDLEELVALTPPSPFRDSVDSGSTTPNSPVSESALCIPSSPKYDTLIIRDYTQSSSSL
# Description: This can be determined in vitro for example at recombinant human metabotropic glutamate receptors, especially PLC-coupled subtypes thereof such as mGluRs, using different procedures like, for example, measurement of the inhibition of the agonist induced elevation of intracellular Ca^2+ concentration in accordance with L. P. Daggett et al., Neuropharm. Vol. 34, pages 871-886 (1995), P. J. Flor et al., J. Neurochem. Vol. 67, pages 58-63 (1996) or by determination to what extent the agonist induced elevation of the inositol phosphate turnover is inhibited as described by T. Knoepfel et al., Eur. J. Pharmacol. Vol. 288, pages 389-392 (1994), L. P. Daggett et al., Neuropharm. Vol. […] and references cited therein. Isolation and expression of human mGluR subtypes are described in U.S. Pat. No. 5,521,297. Selected agents of the invention show IC50 values for the inhibition of the agonist (e.g. glutamate or quisqualate) induced elevation of intracellular Ca2+ concentration or the agonist (e.g. glutamate or quisqualate) induced inositol phosphate turnover, measured in recombinant cells expressing hmGluR5a of about 1 nM to about 50 μM.
melting point [°C],Structure (SMILES),other results
67 to 81,"O=C(c1ccoc1)N1CCC(O)(C#Cc2cccc(F)c2)CC1 [Example 1.31, [4-(3-Fluoro-phenylethynyl)-4-hydroxy-piperidin-1-yl]-furan-3-yl-methanone]",
128 to 130,"Cc1ccccc1N1CCC(O)(C#Cc2cccc(Cl)c2)CC1 [Example 1.137, 4-(3-Chloro-phenylethynyl)-1-o-tolyl-piperidin-4-ol]",
134 to 138,"Cc1cccnc1N1CCC(O)(C#Cc2cccc(Cl)c2)CC1 [Example 1.148, 4-(3-Chloro-phenylethynyl)-3′-methyl-3,4,5,6-tetrahydro-2H-[1,2′]bipyridinyl-4-ol]",
153 to 155,"O=C(C1Oc2ccccc2O1)N1CCC(O)(C#Cc2cccc(Cl)c2)C1 (stereo not drawn) [Example 3.11, Benzo[1,3]dioxol-2-yl-[3-(3-chloro-phenylethynyl)-3-hydroxy-pyrrolidin-1-yl]-methanone]",
93 to 94,"O=C(c1ccoc1)N1CCC(O)(C#Cc2cccc(Cl)c2)CC1 [Example 1, [4-(3-Chloro-phenylethynyl)-4-hydroxy-piperidin-1-yl]-furan-3-yl-methanone]",
124 to 134,"O=C(c1ccoc1)N1CCC(O)(C#Cc2ccc(Cl)cc2)CC1 [Example 1.34, [4-(4-Chloro-phenylethynyl)-4-hydroxy-piperidin-1-yl]-furan-3-yl-methanone]",
110 to 114,"Cc1ccc(C)c(C#CC2(O)CCN(C(=O)c3ccoc3)CC2)c1 [Example 1.37, [4-(2,5-Dimethyl-phenylethynyl)-4-hydroxy-piperidin-1-yl]-furan-3-yl-methanone]",
68 to 70,"OC1(C#Cc2cccc(Cl)c2)CCN(c2cccc3nccnc23)CC1 [Example 1.139, 4-(3-Chloro-phenylethynyl)-1-quinoxalin-5-yl-piperidin-4-ol]",
75 to 80,"O=C(c1ncc[nH]1)N1CCC(O)(C#Cc2cccc(Cl)c2)CC1 [Example 1.4, [4-(3-Chloro-phenylethynyl)-4-hydroxy-piperidin-1-yl]-(1H-imidazol-2-yl)-methanone]",
173 to 177,"OC1(C#Cc2cccc(Cl)c2)CCN(c2cncnc2)CC1 [Example 1.162, 4-(3-Chloro-phenylethynyl)-1-pyrimidin-5-yl-piperidin-4-ol]",
98 to 102,"Cc1ncccc1N1CCC(O)(C#Cc2cccc(Cl)c2)CC1 [Example 1.164, 4-(3-Chloro-phenylethynyl)-2′-methyl-3,4,5,6-tetrahydro-2H-[1,3′]-bipyridinyl-4-ol]",
139 to 142,"OC1(C#Cc2cccc(Cl)c2)CCN(c2ccnc(Cl)c2)CC1 [Example 1.151, 2′-Chloro-4-(3-chloro-phenylethynyl)-3,4,5,6-tetrahydro-2H-[1,4′]bipyridinyl-4-ol]",
124 to 128,"OC1(C#Cc2cccc(Cl)c2)CCN(c2cccnc2)CC1 [Example 1.138, 4-(3-Chloro-phenylethynyl)-3,4,5,6-tetrahydro-2H-[1,3]bipyridinyl-4-ol]",
132 to 135,"O=C(c1ccno1)N1CCC(O)(C#Cc2cccc(Cl)c2)CC1 [Example 1.3, [4-(3-Chloro-phenylethynyl)-4-hydroxy-piperidin-1-yl]-isoxazol-5-yl-methanone]",
134 to 136,"CN1CCC(C(=O)N2CCC(O)(C#Cc3cccc(Cl)c3)CC2)CC1 [Example 1.2, [4-(3-Chloro-phenylethynyl)-4-hydroxy-piperidin-1-yl]-(1-methyl-piperidin-4-yl)-methanone]",
83 to 85,"COc1cccc(C#CC2(O)CCN(C(=O)c3ccoc3)CC2)c1 [Example 1.36, Furan-3-yl-[4-hydroxy-4-(3-methoxy-phenylethynyl)-piperidin-1-yl]-methanone]",
80 to 94,"O=C(c1ccoc1)N1CCC(O)(C#Cc2ccc(F)cc2F)CC1 [Example 1.35, [4-(2,4-Difluoro-phenylethynyl)-4-hydroxy-piperidin-1-yl]-furan-3-yl-methanone]",
,"O=C(c1cc2ccccc2o1)N1CCC(O)(C#Cc2cccc(Cl)c2)CC1 [Example 1.8, Benzofuran-2-yl-[4-(3-chloro-phenyl-ethynyl)-4-hydroxy-piperidin-1-yl]-methanone]","stress-induced hyperthermia (mice; 10 mg/kg p.o., p<0.01): 0.44±0.08 °C; stress-induced hyperthermia (mice; 30 mg/kg p.o., p<0.05): 0.46±0.14 °C; stress-induced hyperthermia (mice; 100 mg/kg p.o., p<0.001): 0.24±0.12 °C; IC50 (hmGluR5): 290 nM"
114 to 119,"CC(C)c1ccc(N2CCC(O)(C#Cc3cccc(Cl)c3)CC2)cc1 [Example 1.128, 4-(3-Chloro-phenylethynyl)-1-(4-isopropyl-phenyl)-piperidin-4-ol]",
154 to 157,"OC1(C#Cc2cccc(Cl)c2)CCN(c2nc3ccccc3s2)CC1 [Example 1.144, 1-Benzothiazol-2-yl-4-(3-chloro-phenylethynyl)-piperidin-4-ol]",
171 to 173,"O=C(c1ccncc1)N1CCC(O)(C#Cc2cccc(Cl)c2)CC1 [Example 1.52, [4-(3-Chloro-phenylethynyl)-4-hydroxy-piperidin-1-yl]-pyridin-4-yl-methanone]",
